Measurements from PubChem BioAssay AID180 (DTP/NCI, 2004).
Several values for one entry are separate records, joined by “and”; a condition that tells them apart may be missing. Equal values may be shown once.

System: BDF1 mice, Adenocarcinoma 755 s.c., tumor weight T/C
Assay: NCI In Vivo Anticancer Drug Screen. Data for tumor model Adenocarcinoma 755 (subcutaneous) in B6D2F1 (BDF1) mice
Details: endpoint: mean tumor weight, higher = larger tumour
How it was run: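 In vivo antitumor screen on a transplantable tumor line. Result equals the measure in compound-treated animals divided by the same measure in vehicle controls.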

[1] = dose: 50.0 mg/kg/injection, schedule: Q01DX011 (ip), vehicle: methylcellulose (MC)
[2] = dose: 12.5 mg/kg/injection, schedule: Q01DX011 (ip), vehicle: methylcellulose (MC)
[3] = dose: 25.0 mg/kg/injection, schedule: Q01DX011 (ip), vehicle: methylcellulose (MC)

`CCCCCCOP(=O)(N1CC1C)N1CC1C` (stereo not drawn) was tested, and the T/C (dose: 12.5 mg/kg/injection, schedule: Q01DX011 (ip), vehicle: saline) was 100 % of control and the T/C (dose: 100.0 mg/kg/injection, schedule: Q01DX011 (ip), vehicle: saline) was 13 % of control and 19 % of control and 26 % of control.
In the case of `O=C1C=C(N2CC2)C(=O)C(N2CC2)=C1N1CC1`, the T/C (dose: 0.02 mg/kg/injection, schedule: Q01DX011 (ip), vehicle: saline) is reported as 79 % of control, the T/C (dose: 0.05 mg/kg/injection, schedule: Q01DX011 (ip), vehicle: saline) is reported as 61 % of control and the T/C (dose: 0.1 mg/kg/injection, schedule: Q01DX011 (ip), vehicle: saline) is reported as 19 % of control. For the same compound, the T/C (dose: 3.0 micrograms/kg/injection, schedule: Q01DX011 (ip), vehicle: carboxymethylcellulose (CMC)) was 42 % of control, the T/C (dose: 5.0 micrograms/kg/injection, schedule: Q01DX011 (ip), vehicle: carboxymethylcellulose (CMC)) was 25 % of control and the T/C (dose: 5.0 micrograms/kg/injection, schedule: Q01DX011 (ip), vehicle: saline) was 65 % of control. The T/C (dose: 10.0 micrograms/kg/injection, schedule: Q01DX011 (ip), vehicle: carboxymethylcellulose (CMC)) was 39 % of control, the T/C (dose: 10.0 micrograms/kg/injection, schedule: Q01DX011 (ip), vehicle: saline) was 54 % of control and the T/C (dose: 20.0 micrograms/kg/injection, schedule: Q01DX011 (ip), vehicle: carboxymethylcellulose (CMC)) was 8 % of control. For the same compound, the T/C (dose: 20.0 micrograms/kg/injection, schedule: Q01DX011 (ip), vehicle: saline) was 59 % of control, the T/C (dose: 25.0 micrograms/kg/injection, schedule: Q01DX011 (ip), vehicle: carboxymethylcellulose (CMC)) was 70 % of control and the T/C (dose: 31.0 micrograms/kg/injection, schedule: Q01DX011 (ip), vehicle: carboxymethylcellulose (CMC)) was 100 % of control. The T/C (dose: 40.0 micrograms/kg/injection, schedule: Q01DX011 (ip), vehicle: saline) was 33 % of control, the T/C (dose: 62.0 micrograms/kg/injection, schedule: Q01DX011 (ip), vehicle: carboxymethylcellulose (CMC)) was 69 % of control and the T/C (dose: 125.0 micrograms/kg/injection, schedule: Q01DX011 (ip), vehicle: carboxymethylcellulose (CMC)) was 63 % of control.
For `Cc1cc2c(cc1C)NC(C)CC(=O)N2` (stereo not drawn), the T/C (dose: 50.0 mg/kg/injection, schedule: Q01DX011 (ip), vehicle: carboxymethylcellulose (CMC)) was 89 % of control, the T/C (dose: 50.0 mg/kg/injection, schedule: Q01DX011 (ip), vehicle: other) was 80 % of control and the T/C (dose: 100.0 mg/kg/injection, schedule: Q01DX011 (ip), vehicle: other) was 48 % of control. The T/C (dose: 200.0 mg/kg/injection, schedule: Q01DX011 (ip), vehicle: carboxymethylcellulose (CMC)) was 84 % of control.
For `O=C(OCC1OC(n2cnc3c(=O)[nH]c(=O)[nH]c32)C(OC(=O)c2ccccc2)C1OC(=O)c1ccccc1)c1ccccc1` (stereo not drawn), the T/C (dose: 30.0 mg/kg/injection, schedule: Q01DX011 (ip), vehicle: carboxymethylcellulose (CMC)) was 105 % of control, the T/C (dose: 60.0 mg/kg/injection, schedule: Q01DX011 (ip), vehicle: carboxymethylcellulose (CMC)) was 78 % of control and the T/C (dose: 240.0 mg/kg/injection, schedule: Q01DX011 (ip), vehicle: carboxymethylcellulose (CMC)) was 59 % of control.
`CCC(=O)c1cc2c(cc1CC)C(C)(C)CCC2(C)C` was tested, and the T/C (dose: 100.0 mg/kg/injection, schedule: Q01DX011 (ip), vehicle: carboxymethylcellulose (CMC)) was 53 % of control and 63 % of control.
`CC(=O)[C@@]1(O)CC[C@H]2[C@@H]3C[C@H](C)C4=CC(=O)CC[C@]4(C)[C@H]3[C@@H](O)C[C@@]21C` was tested, and the T/C (dose: 7.0 mg/kg/injection, schedule: Q01DX011 (sc), vehicle: steriod suspending solution) was 70 % of control, the T/C (dose: 8.0 mg/kg/injection, schedule: Q01DX011 (sc), vehicle: steriod suspending solution) was 76 % of control and the T/C (dose: 14.0 mg/kg/injection, schedule: Q01DX011 (sc), vehicle: steriod suspending solution) was 54 % of control. The T/C (dose: 16.0 mg/kg/injection, schedule: Q01DX011 (sc), vehicle: steriod suspending solution) was 76 % of control and the T/C (dose: 450.0 mg/kg/injection, schedule: Q01DX011 (sc), vehicle: steriod suspending solution) was 87 % of control.
For `O=C(Nc1ncnc2c1ncn2C1CC(OC(=O)c2ccc([N+](=O)[O-])cc2)C(COC(=O)c2ccc([N+](=O)[O-])cc2)O1)c1ccccc1` (stereo not drawn), the T/C (dose: 16.7 mg/kg/injection, schedule: Q01DX011 (ip), vehicle: methylcellulose (MC)) was 104 % of control, the T/C [1] was 102 % of control and the T/C (dose: 150.0 mg/kg/injection, schedule: Q01DX011 (ip), vehicle: methylcellulose (MC)) was 62 % of control.
For `CC(C)Cn1cnc2c(SCc3cccc(F)c3)nc(N)nc21`, the T/C (dose: 6.25 mg/kg/injection, schedule: Q01DX011 (ip), vehicle: methylcellulose (MC)) was 75 % of control, the T/C [2] was 55 % of control and the T/C [3] was 15 % of control. The T/C [1] was 1 % of control.
With `OCCn1cnc2c(SCc3ccccc3)ncnc21` the T/C [2] was 108 % of control, the T/C [3] was 17 % of control and the T/C [1] was 3 % of control. The T/C (dose: 75.0 mg/kg/injection, schedule: Q01DX011 (ip), vehicle: methylcellulose (MC)) was 3 % of control and the T/C (dose: 100.0 mg/kg/injection, schedule: Q01DX011 (ip), vehicle: methylcellulose (MC)) was 1 % of control.
`O=P(N1CCCC1)(N1CC1)N1CC1` was tested, and the T/C (dose: 0.2 mg/kg/injection, schedule: Q01DX011 (ip), vehicle: saline) was 94 % of control and 75 % of control, the T/C (dose: 0.25 mg/kg/injection, schedule: Q01DX011 (ip), vehicle: carboxymethylcellulose (CMC)) was 110 % of control and the T/C (dose: 0.5 mg/kg/injection, schedule: Q01DX011 (ip), vehicle: saline) was 54 % of control and 79 % of control. For the same compound, the T/C (dose: 1.0 mg/kg/injection, schedule: Q01DX011 (ip), vehicle: carboxymethylcellulose (CMC)) was 42 % of control, the T/C (dose: 1.0 mg/kg/injection, schedule: Q01DX011 (ip), vehicle: saline) was 8 % of control and 21 % of control and the T/C (dose: 2.0 mg/kg/injection, schedule: Q01DX011 (ip), vehicle: carboxymethylcellulose (CMC)) was 46 % of control. The T/C (dose: 2.0 mg/kg/injection, schedule: Q01DX011 (ip), vehicle: saline) was 3 % of control, the T/C (dose: 4.0 mg/kg/injection, schedule: Q01DX011 (ip), vehicle: carboxymethylcellulose (CMC)) was 23 % of control and the T/C (dose: 6.0 mg/kg/injection, schedule: Q01DX011 (ip), vehicle: carboxymethylcellulose (CMC)) was 8 % of control. For the same compound, the T/C (dose: 8.0 mg/kg/injection, schedule: Q01DX011 (ip), vehicle: carboxymethylcellulose (CMC)) was 11 % of control and the T/C (dose: 12.0 mg/kg/injection, schedule: Q01DX011 (ip), vehicle: saline) was 3 % of control.
